According to PMC9693141 (Molecules, 2022):
Like-named read-outs stand apart in the source and are kept apart here.

Key:
[1] = test system: L. infantum axenic amastigotes; assay: In vitro antileishmanial evaluation on axenic amastigotes (resazurin viability); format: cell-based, Leishmania infantum; conditions: 72 h incubation then resazurin 24 h, triplicate, three independent experiments, read-out: L. infantum Axenic Amastigotes IC50 (µM) ± S.D.
Experimental: Cultures of axenic amastigotes of L. infantum were adapted from. Briefly, axenic amastigotes of L. infantum were obtained from late log promastigotes diluted at 1 × 10^6/mL in M199 complete medium acidified at pH 5.5 and cultured at 37 °C with 5% CO2.
The evaluations of activity on axenic amastigotes were adapted from the protocols previously described. […] Cell viability was then monitored as described above. The activity of the compounds was expressed as IC50, which was determined by nonlinear regression using GraphPad Prism 7.0.

[2] = test system: L. infantum intramacrophagic amastigotes; assay: In vitro antileishmanial evaluation on intramacrophage amastigotes in RAW264.7 macrophages (Giemsa counting); format: cell-based, Leishmania infantum; conditions: infected RAW264.7 macrophages, 48 h of treatment, amastigotes per macrophage counted, read-out: L. infantum Intramacrophagic Amastigotes IC50 (µM) ± S.D.
Experimental: Promastigotes of Leishmania infantum (MHOM/FR/2008/LEM5700) were cultured in the dark at 26 °C with 5% CO2 in M199 complete medium containing M199 medium supplemented with adenosine (100 µM), hemin (0.5 mg/L), Hepes (40 mM) pH 7.4, and heat-inactivated fetal bovine serum (10%; HIFBS). Cultures of axenic amastigotes of L. infantum were adapted from. Briefly, axenic amastigotes of L. infantum were obtained from late log promastigotes diluted at 1 × 10^6/mL in M199 complete medium acidified at pH 5.5 and cultured at 37 °C with 5% CO2.
(§1) The RAW 264.7 macrophages (ATCC) were cultured at 37 °C with 5% CO2 in DMEM complete medium containing Dulbecco’s Modified Eagle’s Medium (DMEM, Invitrogen, Thermo-Fisher, Villebon-sur-Yvette, France) supplemented with penicillin-streptomycin (100 U/mL; Invitrogen) and heat-inactivated fetal bovine serum (10%; HIFBS).
Concerning the evaluation on intramacrophage amastigotes, the determination of the cytotoxicity as presented above was necessary to use the highest drug concentrations to be studied on the intramacrophage amastigote model. The evaluation on the intracellular form on the parasite was performed as previously described. RAW264.7 macrophages were plated in 16-well Lab-Tek chamber slides (Thermo-Fisher Villebon-sur-Yvette, France) at a density of 2 × 10^4 cells per well and incubated for 24 h at 37 °C with 5% CO2. Axenic amastigotes were differentiated as described above, centrifuged at 2000× g for 10 min, resuspended in DMEM complete medium, and added to each well to reach a 16:1 parasite to macrophage ratio. After 24 h of infection at 37 °C with 5% CO2, extracellular parasites were removed, and DMEM complete medium (100 µL) containing two-fold serial dilutions of the compounds, from 100 µM to 0.049 µM, was added to each well. A positive control treated with 1% DMSO was added to each Lab-tek chamber slide. After 48 h of treatment, the medium was removed and cells were fixed in methanol for 1 min, stained in 10% Giemsa (Merck, Guyancourt, France) for 5 min, and further rinsed in water before observation in phase contrast at the microscope (Olympus CX31; Olympus, Rungis, France). The number of amastigotes was counted by two independent experimenters for a total of 300 macrophages per well and the ratio of amastigotes per macrophage was determined for each condition. This ratio was further compared with the one of the positive controls, considered as 100%, to determine a percentage of inhibition (% I), as follows: % I = 100 − [(ratio of amastigotes per macrophage in treated cells/ratio of amastigotes per macrophages in untreated cells) × 100]. The activity of the compounds was expressed as IC50, which was determined by nonlinear regression using GraphPad Prism 7.0. […] In vitro antileishmanial evaluations were performed in triplicate in three independent experiments.

[3] = test system: RAW 264.7 macrophages; assay: In vitro cytotoxicity on RAW 264.7 macrophages (resazurin); format: cell-based; conditions: 48 h of incubation, read-out: Cytotoxicity on RAW 264.7 CC50 (µM) ± S.D.
Experimental: as §1
Cells were plated in 96-well microplates at a density of 2 × 10^4 cells per well. […] In living cells, resazurin is reduced in resorufin, and this conversion is monitored by measuring OD570nm (resorufin) and OD600nm (resazurin; multimode microplate reader Spark®, Tecan, Lyon, France). […] In vitro cytotoxicity assays were performed in triplicate in three independent experiments.

| IC50 ([1]; Leishmania infantum) | IC50 ([2]; Leishmania infantum) | Molecule | IC50 [1] | CC50 [3] | IC50 [2] |
| --- | --- | --- | --- | --- | --- |
| 16.8 ± 1.8 µM | 23.7 ± 6.5 µM | CC(C)=CCCC1(C)C=Cc2c(c3ccccc3n(Cc3ccccc3)c2=O)O1 (stereo not shown) [Compound 15a, 6-Benzyl-2-methyl-2-(4-methylpent-3-en-1-yl)-2,6-dihydro-5H-pyrano [3,2-c]quinolin-5-one] |  |  |  |
| 15 ± 1.7 µM | > 25 µM | COc1cccc(Cn2c(=O)c3c(c4ccccc42)OC(C)(CCC=C(C)C)C=C3)c1 (stereo not shown) [Compound 15b, 6-(3-Methoxybenzyl)-2-methyl-2-(4-methylpent-3-en-1-yl)-2,6-dihydro-5H-pyrano [3,2-c]quinolin-5-one] |  |  |  |
| 14.2 ± 4.3 µM | > 25 µM | CC(C)=CCCC1(C)C=Cc2c(c3ccccc3n(Cc3ccccn3)c2=O)O1 (stereo not shown) [Compound 15c, 2-Methyl-2-(4-methylpent-3-en-1-yl)-6-(pyridin-2-ylmethyl)-2,6-dihydro-5H-pyrano [3,2-c]quinolin-5-one] |  |  |  |
| 17.8 ± 2.3 µM | > 25 µM | COCCn1c(=O)c2c(c3ccccc31)OC(C)(CCC=C(C)C)C=C2 (stereo not shown) [Compound 15d, 6-(2-Methoxyethyl)-2-methyl-2-(4-methylpent-3-en-1-yl)-2,6-dihydro-5H-pyrano [3,2-c]quinolin-5-one] |  |  |  |
| 9.8 ± 2.9 µM | > 50 µM | CC(C)=CCCC1(C)C=Cc2c(c3ccccc3n(CCc3ccccc3)c2=O)O1 (stereo not shown) [Compound 15f, 2-Methyl-2-(4-methylpent-3-en-1-yl)-6-phenethyl-2,6-dihydro-5H-pyrano [3,2-c]quinolin-5-one] |  |  |  |
| > 100 µM | > 100 µM | CC(C)=CCCC1(C)C=Cc2c(c3ccccc3n(S(=O)(=O)c3ccccc3)c2=O)O1 (stereo not shown) [Compound 15h, 2-Methyl-2-(4-methylpent-3-en-1-yl)-6-(phenylsulfonyl)-2,6-dihydro-5H-pyrano [3,2-c]quinolin-5-one] |  |  |  |
| 12.9 ± 3.2 µM | > 15 µM | CC(C)=CCCC1(C)C=Cc2c(c3ccccc3n(C(=O)Oc3ccccc3)c2=O)O1 (stereo not shown) [Compound 15i, Phenyl 2-methyl-2-(4-methylpent-3-en-1-yl)-5-oxo-2H-pyrano [3,2-c]quinoline-6(5H)-carboxylate] |  |  |  |
| 9.1 ± 0.4 µM | > 25 µM | CC(C)=CCCC1(C)C=Cc2c(c3ccccc3n(C(=O)OC(C)(C)C)c2=O)O1 (stereo not shown) [Compound 15j, tert-Butyl 2-methyl-2-(4-methylpent-3-en-1-yl)-5-oxo-2H-pyrano [3,2-c]quinoline-6(5H)-carboxylate] |  |  |  |
| 14.6 ± 2.1 µM | 19 ± 2.2 µM | COC(=O)CCCCn1c(=O)c2c(c3ccccc31)OC(C)(CCC=C(C)C)C=C2 (stereo not shown) [Compound 15k, Methyl 5-(2-methyl-2-(4-methylpent-3-en-1-yl)-5-oxo-2H-pyrano [3,2-c]quinolin-6(5H)-yl)pentanoate] |  |  |  |
| 16.4 ± 1.7 µM | > 100 µM | CC(C)=CCCC1(C)C=Cc2c(c3ccccc3n(CCCCC(=O)O)c2=O)O1 (stereo not shown) [Compound 15l, 5-(2-Methyl-2-(4-methylpent-3-en-1-yl)-5-oxo-2H-pyrano [3,2-c]quinolin-6(5H)-yl)pentanoic acid] |  |  |  |
| 7 ± 2.1 µM | > 25 µM | CC1(C)CCCC2(C)Oc3c(c(=O)n(Cc4ccccc4)c4ccccc34)C=C12 (stereo not shown) [Compound 16a, 5-Benzyl-8,8,11a-trimethyl-5,8,9,10,11,11a-hexahydro-6H-chromeno [3,2-c]quinolin-6-one] |  |  |  |

The remaining lines, values behind:

| Molecule | IC50 ([1]; Leishmania infantum) | IC50 ([2]; Leishmania infantum) | IC50 [1] | CC50 [3] | IC50 [2] |
| --- | --- | --- | --- | --- | --- |
| Cn1c(=O)c2c(c3ccccc31)OC(C)(C)C1CCC(C)(O)C(Cl)C21 (stereo not shown) [Compound 3, Chloroaustralasine A] | 8 µM | > 50 µM | 8.1 ± 1.4 µM |  |  |
| CC1(O)CCC2C(c3c(c4ccccc4[nH]c3=O)OC2(C)C)C1Cl (stereo not shown) [Compound 4] | 18.6 ± 2.5 µM | > 6.25 µM |  |  |  |
| Cn1c(=O)c2c(c3ccccc31)OC1(C)CCCC(C)(C)C1=C2 (stereo not shown) [Compound 11, 5,8,8,11a-Tetramethyl-5,8,9,10,11,11a-hexahydro-6H-chromeno [3,2-c]quinolin-6-one] | > 100 µM | 14.7 ± 1.6 µM |  |  |  |
| Cn1c(=O)c2c(c3ccccc31)OC1(C)CCC3C1C2C3(C)C (stereo not shown) [Compound 12, 1,1,3a,9-Tetramethyl-1,1a,1a1,2,3,3a,9,10b-octahydro-10H-4-oxa-9-azacyclobuta [7,1]indeno [5,6-a]naphthalen-10-one] | 42.6 ± 2.1 µM | > 50 µM |  |  |  |
| CC(C)=CCCC1(C)C=Cc2c(c3ccccc3[nH]c2=O)O1 (stereo not shown) [Compound 14, 2-Methyl-2-(4-methylpent-3-en-1-yl)-2,6-dihydro-5H-pyrano [3,2-c]quinolin-5-one] | 15.6 ± 1.8 µM | > 100 µM |  |  |  |
| CCCCCn1c(=O)c2c(c3ccccc31)OC(C)(CCC=C(C)C)C=C2 (stereo not shown) [Compound 15g, 2-Methyl-2-(4-methylpent-3-en-1-yl)-6-pentyl-2,6-dihydro-5H-pyrano [3,2-c]quinolin-5-one] | 82.7 ± 6.5 µM | 29.5 ± 9.9 µM |  | > 100 µM |  |
| CCCCCCCCCCCCCCCCOP(=O)([O-])OCC[N+](C)(C)C [Miltefosine, reference compound] | 1 ± 0.3 µM | 6.7 ± 1.7 µM |  |  |  |
| Zanthosimuline [Compound 7] |  |  | 29.1 ± 1 µM |  | > 100 µM |
